In patent US12559506B2, “Indazole based compounds and associated methods of use” (Arvinas Operations, Inc., priority 2021, dated 2026):

Target: T1, LRRK2 (endogenous, HiBit tagged) (Homo sapiens, UniProt Q5S007)
T1 construct: endogenous in cells; host or cells: HEK293 cells with HiBit knock-in at the endogenous LRRK2 locus, stably expressing firefly luciferase
Test: Endogenous LRRK2 degradation assay, endogenous gene C-terminally HiBit-tagged in HEK293 cells (Nano-Glo Dual Luciferase)
Format: cell-based
Settings: endogenous HiBit-tagged LRRK2 in HEK293 cells, 24 hours treatment; for Dmax: read-out: **Endogenous WT Dmax (%); for DC50: read-out: *Endogenous WT DC50
Summary of the method: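 LRRK2-HiBit quantified via Nano-Glo Dual Luciferase in HEK293 knock-in cells co-expressing firefly luciferase, after 24 h exposure to compound (1 μM final top, 1:3, 11 points). Values normalised to DMSO median per plate and curve-fitted; Alamar Blue viability run alongside.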

T1 sequence (Q5S007 whole entry): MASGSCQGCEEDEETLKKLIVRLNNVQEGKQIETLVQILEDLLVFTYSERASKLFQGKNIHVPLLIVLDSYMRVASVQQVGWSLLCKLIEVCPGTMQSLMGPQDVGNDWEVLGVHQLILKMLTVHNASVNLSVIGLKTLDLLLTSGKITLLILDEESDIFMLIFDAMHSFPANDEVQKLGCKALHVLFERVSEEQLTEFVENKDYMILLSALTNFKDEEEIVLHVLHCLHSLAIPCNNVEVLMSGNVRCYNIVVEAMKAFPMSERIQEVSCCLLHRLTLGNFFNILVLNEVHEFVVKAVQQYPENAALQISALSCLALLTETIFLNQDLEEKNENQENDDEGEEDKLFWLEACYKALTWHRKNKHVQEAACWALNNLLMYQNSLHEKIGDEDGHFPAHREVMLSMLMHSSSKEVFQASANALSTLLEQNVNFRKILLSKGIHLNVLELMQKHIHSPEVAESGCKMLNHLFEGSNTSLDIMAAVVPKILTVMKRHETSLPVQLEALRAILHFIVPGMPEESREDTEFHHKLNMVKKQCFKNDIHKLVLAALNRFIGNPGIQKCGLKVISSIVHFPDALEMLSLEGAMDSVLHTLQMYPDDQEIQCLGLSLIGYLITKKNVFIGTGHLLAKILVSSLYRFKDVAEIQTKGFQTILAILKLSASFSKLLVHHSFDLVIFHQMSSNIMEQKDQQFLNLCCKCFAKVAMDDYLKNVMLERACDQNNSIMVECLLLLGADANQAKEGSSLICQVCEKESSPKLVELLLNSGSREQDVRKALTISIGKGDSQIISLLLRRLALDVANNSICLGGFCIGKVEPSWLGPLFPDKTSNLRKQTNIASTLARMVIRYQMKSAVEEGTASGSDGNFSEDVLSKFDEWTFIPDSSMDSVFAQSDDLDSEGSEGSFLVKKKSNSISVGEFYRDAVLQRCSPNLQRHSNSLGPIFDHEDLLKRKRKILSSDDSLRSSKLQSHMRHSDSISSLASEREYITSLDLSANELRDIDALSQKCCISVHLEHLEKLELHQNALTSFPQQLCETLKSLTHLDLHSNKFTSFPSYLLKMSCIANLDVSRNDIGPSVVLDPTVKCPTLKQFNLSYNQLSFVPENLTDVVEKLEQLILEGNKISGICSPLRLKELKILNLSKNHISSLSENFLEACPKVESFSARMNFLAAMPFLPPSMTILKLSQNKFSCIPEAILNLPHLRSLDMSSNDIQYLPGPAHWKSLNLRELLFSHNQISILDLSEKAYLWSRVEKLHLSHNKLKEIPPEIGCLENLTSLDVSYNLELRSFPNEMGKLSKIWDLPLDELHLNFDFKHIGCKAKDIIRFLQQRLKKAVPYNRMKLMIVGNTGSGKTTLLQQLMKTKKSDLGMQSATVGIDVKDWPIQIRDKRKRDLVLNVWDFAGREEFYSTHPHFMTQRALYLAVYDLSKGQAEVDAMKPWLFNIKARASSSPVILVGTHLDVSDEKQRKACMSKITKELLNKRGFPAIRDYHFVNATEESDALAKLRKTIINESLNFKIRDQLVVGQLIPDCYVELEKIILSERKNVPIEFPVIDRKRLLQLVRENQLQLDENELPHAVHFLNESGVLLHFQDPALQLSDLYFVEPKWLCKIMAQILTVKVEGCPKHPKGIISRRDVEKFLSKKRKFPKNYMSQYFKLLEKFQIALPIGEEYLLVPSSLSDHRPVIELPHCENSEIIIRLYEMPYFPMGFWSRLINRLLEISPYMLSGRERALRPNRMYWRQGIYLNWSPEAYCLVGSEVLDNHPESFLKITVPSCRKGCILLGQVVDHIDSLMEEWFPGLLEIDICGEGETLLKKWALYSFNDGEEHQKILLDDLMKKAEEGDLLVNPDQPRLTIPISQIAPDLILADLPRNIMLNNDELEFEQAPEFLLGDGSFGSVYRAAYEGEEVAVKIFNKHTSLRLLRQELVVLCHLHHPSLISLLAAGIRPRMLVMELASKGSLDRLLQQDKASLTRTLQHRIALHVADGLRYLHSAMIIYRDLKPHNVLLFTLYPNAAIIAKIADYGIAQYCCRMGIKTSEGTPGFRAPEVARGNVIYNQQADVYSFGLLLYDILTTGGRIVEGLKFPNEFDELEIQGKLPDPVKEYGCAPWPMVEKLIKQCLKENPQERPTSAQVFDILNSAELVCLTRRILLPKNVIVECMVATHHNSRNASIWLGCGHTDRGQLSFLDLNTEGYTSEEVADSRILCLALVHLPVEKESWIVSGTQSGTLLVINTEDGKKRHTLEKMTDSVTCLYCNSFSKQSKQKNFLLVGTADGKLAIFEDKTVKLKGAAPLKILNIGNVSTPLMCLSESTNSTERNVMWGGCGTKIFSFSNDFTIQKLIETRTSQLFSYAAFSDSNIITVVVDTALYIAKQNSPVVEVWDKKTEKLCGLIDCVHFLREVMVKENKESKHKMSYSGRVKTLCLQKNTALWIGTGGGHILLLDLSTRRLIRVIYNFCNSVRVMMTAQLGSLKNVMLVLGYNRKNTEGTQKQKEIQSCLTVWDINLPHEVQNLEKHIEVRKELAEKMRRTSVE

SMILES | Dmax | DC50
C[C@H]1CN(c2cc(-c3n[nH]c4ccc(OC5(C)CC5)cc34)ncn2)CCN1CCN1CCC2(CN(c3ccc4c(c3F)CN(C3CCC(=O)NC3=O)C4=O)C2)C(F)(F)C1 (stereo partly drawn) [Compound 317, 3-[5-(5,5-difluoro-7-{2-[(2S)-2-methyl-4-{6-[5-(1-methylcyclopropoxy)-1H-indazol-3-yl]pyrimidin-4-yl}piperazin-1-yl]ethyl}-2,7-diazaspiro[3.5]nonan-2-yl)-4-fluoro-1-oxo-2,3-dihydro-1H-isoindol-2-yl]piperidine-2,6-dione] | 50 to 70% | < 10 nM
COc1c(N2CCC(C(C)(C)N3CCN(CC4CCN(c5cc(-c6n[nH]c7ccc(OC8(C)CC8)cc67)ncn5)CC4)CC3)CC2)ccc2c1CN(C1CCC(=O)NC1=O)C2=O (stereo not drawn) [Compound 318, 3-{4-methoxy-5-[4-(2-{4-[(1-{6-[5-(1-methylcyclopropoxy)-1H-indazol-3-yl]pyrimidin-4-yl}piperidin-4-yl)methyl]piperazin-1-yl}propan-2-yl)piperidin-1-yl]-1-oxo-2,3-dihydro-1H-isoindol-2-yl}piperidine-2,6-dione] | ≥ 70% | < 10 nM
COc1c(N2CCC(O[C@@H]3CCN(CC4CCN(c5cc(-c6n[nH]c7ccc(OC8(C)CC8)cc67)ncn5)CC4)C(C)(C)C3)CC2)ccc2c1CN(C1CCC(=O)NC1=O)C2=O (stereo partly drawn) [Compound 322, 3-[5-(4-{[(4R)-2,2-dimethyl-1-[(1-{6-[5-(1-methylcyclopropoxy)-1H-indazol-3-yl]pyrimidin-4-yl}piperidin-4-yl)methyl]piperidin-4-yl]oxy}piperidin-1-yl)-4-methoxy-1-oxo-2,3-dihydro-1H-isoindol-2-yl]piperidine-2,6-dione] | 50 to 70% | < 10 nM
COc1c(N2CCC(CN3CC[C@H](OC4CCN(c5cc(-c6n[nH]c7ccc(OC8(C)CC8)cc67)ncn5)CC4)CC3(C)C)CC2)ccc2c1CN(C1CCC(=O)NC1=O)C2=O (stereo partly drawn) [Compound 325, 3-(5-(4-(((S)-2,2-dimethyl-4-((1-(6-(5-(1-methylcyclopropoxy)-1H-indazol-3-yl)pyrimidin-4-yl)piperidin-4-yl)oxy)piperidin-1-yl)methyl)piperidin-1-yl)-4-methoxy-1-oxoisoindolin-2-yl)piperidine-2,6-dione] | 50 to 70% | < 10 nM
CC1(Oc2ccc3n[nH]c(-c4cc(N5CCC6(CC5)CN([C@H]5C[C@H](OC7CCN(c8ccc9c(c8F)CN(C8CCC(=O)NC8=O)C9=O)CC7)C5)C6)ncn4)c3c2)CC1 (stereo partly drawn) [Compound 326, 3-(4-fluoro-1-oxo-5-{4-[(1r,3r)-3-(7-{6-[5-(1-methylcyclopropoxy)-2H-indazol-3-yl]pyrimidin-4-yl}-2,7-diazaspiro[3.5]nonan-2-yl)cyclobutoxy]piperidin-1-yl}-2,3-dihydro-1H-isoindol-2-yl)piperidine-2,6-dione] | 50 to 70% | < 10 nM
CC1(Oc2ccc3[nH]nc(-c4cc(N5CCC(CN6CCN(C[C@H]7CCN(c8ccc9c(c8F)CN(C8CCC(=O)NC8=O)C9=O)C7)CC6)CC5)ncn4)c3c2)CC1 (stereo partly drawn) [Compound 330, 3-{4-fluoro-5-[(3R)-3-({4-[(1-{6-[5-(1-methylcyclopropoxy)-1H-indazol-3-yl]pyrimidin-4-yl}piperidin-4-yl)methyl]piperazin-1-yl}methyl)pyrrolidin-1-yl]-1-oxo-2,3-dihydro-1H-isoindol-2-yl}piperidine-2,6-dione] | 50 to 70% | < 10 nM
COc1c(N2CCC(CN3CCN(C(C)(C)C4CCN(c5cc(-c6n[nH]c7ccc(OC8(C)CC8)cc67)ncn5)CC4)CC3)CC2)ccc2c1CN(C1CCC(=O)NC1=O)C2=O (stereo not drawn) [Compound 331, 3-{4-methoxy-5-[4-({4-[2-(1-{6-[5-(1-methylcyclopropoxy)-1H-indazol-3-yl]pyrimidin-4-yl}piperidin-4-yl)propan-2-yl]piperazin-1-yl}methyl)piperidin-1-yl]-1-oxo-2,3-dihydro-1H-isoindol-2-yl}piperidine-2,6-dione] | 50 to 70% | < 10 nM

Further lines, results first:

Dmax | DC50 | SMILES
50 to 70% | < 10 nM | COc1c(N2CCC3(CC2)CN([C@H]2C[C@H](OC4CCN(c5cc(-c6[nH]nc7ccc(OC8(C)CC8)cc67)ncn5)CC4)C2)C3)ccc2c1CN(C1CCC(=O)NC1=O)C2=O (stereo partly drawn) [Compound 315, 3-(4-methoxy-1-oxo-5-{2-[(1r,3r)-3-[(1-{6-[5-(1-methylcyclopropoxy)-2H-indazol-3-yl]pyrimidin-4-yl}piperidin-4-yl)oxy]cyclobutyl]-2,7-diazaspiro[3.5]nonan-7-yl}-2,3-dihydro-1H-isoindol-2-yl)piperidine-2,6-dione]
50 to 70% | < 10 nM | COc1c(N2CCC(O[C@H]3CCN(CC4CCN(c5cc(-c6n[nH]c7ccc(OC8(C)CC8)cc67)ncn5)CC4)C(C)(C)C3)CC2)ccc2c1CN(C1CCC(=O)NC1=O)C2=O (stereo partly drawn) [Compound 316, 3-[5-(4-{[(4S)-2,2-dimethyl-1-[(1-{6-[5-(1-methylcyclopropoxy)-1H-indazol-3-yl]pyrimidin-4-yl}piperidin-4-yl)methyl]piperidin-4-yl]oxy}piperidin-1-yl)-4-methoxy-1-oxo-2,3-dihydro-1H-isoindol-2-yl]piperidine-2,6-dione]
50 to 70% | < 10 nM | COc1c(N2CCC(CN3CC[C@@H](OC4CCN(c5cc(-c6n[nH]c7ccc(OC8(C)CC8)cc67)ncn5)CC4)CC3(C)C)CC2)ccc2c1CN(C1CCC(=O)NC1=O)C2=O (stereo partly drawn) [Compound 319, 3-(5-(4-(((R)-2,2-dimethyl-4-((1-(6-(5-(1-methylcyclopropoxy)-1H-indazol-3-yl)pyrimidin-4-yl)piperidin-4-yl)oxy)piperidin-1-yl)methyl)piperidin-1-yl)-4-methoxy-1-oxoisoindolin-2-yl)piperidine-2,6-dione]
50 to 70% | < 10 nM | CC1(Oc2ccc3[nH]nc(-c4cc(N5CCC(C(C)(C)N6CCN(CC7CCN(c8ccc9c(c8F)CN(C8CCC(=O)NC8=O)C9=O)CC7)CC6)CC5)ncn4)c3c2)CC1 (stereo not drawn) [Compound 320, 3-{4-fluoro-5-[4-({4-[2-(1-{6-[5-(1-methylcyclopropoxy)-1H-indazol-3-yl]pyrimidin-4-yl}piperidin-4-yl)propan-2-yl]piperazin-1-yl}methyl)piperidin-1-yl]-1-oxo-2,3-dihydro-1H-isoindol-2-yl}piperidine-2,6-dione]
50 to 70% | < 10 nM | CC1(Oc2ccc3[nH]nc(-c4cc(N5CCC(CN6CCN(C[C@@H]7CCN(c8ccc9c(c8F)CN(C8CCC(=O)NC8=O)C9=O)C7)CC6)CC5)ncn4)c3c2)CC1 (stereo partly drawn) [Compound 321, 3-{4-fluoro-5-[(3S)-3-({4-[(1-{6-[5-(1-methylcyclopropoxy)-1H-indazol-3-yl]pyrimidin-4-yl}piperidin-4-yl)methyl]piperazin-1-yl}methyl)pyrrolidin-1-yl]-1-oxo-2,3-dihydro-1H-isoindol-2-yl}piperidine-2,6-dione]
50 to 70% | < 10 nM | CC1(Oc2ccc3n[nH]c(-c4cc(N5CCC(O[C@H]6C[C@H](N7CCC8(CC7)CN(c7ccc9c(c7F)CN(C7CCC(=O)NC7=O)C9=O)C8)C6)CC5)ncn4)c3c2)CC1 (stereo partly drawn) [Compound 323, 3-(4-fluoro-1-oxo-5-{7-[(1r,3r)-3-[(1-{6-[5-(1-methylcyclopropoxy)-2H-indazol-3-yl]pyrimidin-4-yl}piperidin-4-yl)oxy]cyclobutyl]-2,7-diazaspiro[3.5]nonan-2-yl}-2,3-dihydro-1H-isoindol-2-yl)piperidine-2,6-dione]
– | < 10 nM | COc1c(N2CCC(CN3CCN(CC4CCN(c5cc(-c6n[nH]c7cnc(OC8(C)CC8)cc67)ncn5)CC4)C[C@H]3C)CC2)ccc2c1CN(C1CCC(=O)NC1=O)C2=O (stereo partly drawn) [Compound 324, 3-[4-methoxy-5-(4-{[(2R)-2-methyl-4-[(1-{6-[5-(1-methylcyclopropoxy)-1H-pyrazolo[3,4-c]pyridin-3-yl]pyrimidin-4-yl}piperidin-4-yl)methyl]piperazin-1-yl]methyl}piperidin-1-yl)-1-oxo-2,3-dihydro-1H-isoindol-2-yl]piperidine-2,6-dione]
50 to 70% | < 10 nM | CC1(Oc2ccc3[nH]nc(-c4cc(N5CC[C@@H](CN6CCN(CC7CCN(c8ccc9c(c8F)CN(C8CCC(=O)NC8=O)C9=O)CC7)CC6)C5)ncn4)c3c2)CC1 (stereo partly drawn) [Compound 327, 3-(4-fluoro-5-{4-[(4-{[(3S)-1-{6-[5-(1-methylcyclopropoxy)-1H-indazol-3-yl]pyrimidin-4-yl}pyrrolidin-3-yl]methyl}piperazin-1-yl)methyl]piperidin-1-yl}-1-oxo-2,3-dihydro-1H-isoindol-2-yl)piperidine-2,6-dione]
50 to 70% | < 10 nM | COc1c(N2CC[C@@H](CN3CCN(CC4CCN(c5cc(-c6n[nH]c7ccc(OC8(C)CC8)cc67)ncn5)CC4)CC3)C2)ccc2c1CN(C1CCC(=O)NC1=O)C2=O (stereo partly drawn) [Compound 328, 3-{4-methoxy-5-[(3S)-3-({4-[(1-{6-[5-(1-methylcyclopropoxy)-1H-indazol-3-yl]pyrimidin-4-yl}piperidin-4-yl)methyl]piperazin-1-yl}methyl)pyrrolidin-1-yl]-1-oxo-2,3-dihydro-1H-isoindol-2-yl}piperidine-2,6-dione]
50 to 70% | < 10 nM | COc1c(C2CCN([C@H]3C[C@H](OC4CCN(c5cc(-c6[nH]nc7ccc(OC8(C)CC8)cc67)ncn5)CC4)C3)CC2)ccc2c1CN(C1CCC(=O)NC1=O)C2=O (stereo partly drawn) [Compound 329, 3-(4-methoxy-1-oxo-5-{1-[(1r,3r)-3-[(1-{6-[5-(1-methylcyclopropoxy)-2H-indazol-3-yl]pyrimidin-4-yl}piperidin-4-yl)oxy]cyclobutyl]piperidin-4-yl}-2,3-dihydro-1H-isoindol-2-yl)piperidine-2,6-dione]
